Experimental data from patent US4731109A, “Herbicidal 2-haloacetanilides” (Monsanto Company, priority 1982, dated 1988).
Where two headings read alike, the source gives them in different places.

Legend:
Type in all cases: in vivo
Bush Bean = assay: Field pre-emergence selectivity test; details: 1008 h, 6 weeks, read-out: Percent Inhibition; for inhibition at 560 g/ha: 0.56 Kg/Ha; for inhibition at 1120 g/ha: 1.12 Kg/Ha; for inhibition at 2240 g/ha: 2.24 Kg/Ha; for inhibition at 4480 g/ha: 4.48 Kg/Ha
Experimental: (§1) The compound of Examples 1 and 2 was also tested in the field to determine its pre-emergence selectivity against foxtail (spp), barnyardgrass, wild proso millet, smartweed, lambsquarters and pigweed in a plurality of crops; the data (representing three replicate runs) are shown in Table VII for both surface application (S.A.) and soil incorporation (PPI, i.e., preplant incorporation) of the herbicide. The seeds were planted in a fine seedbed of silt loam of intermediate moisture. The seeds were planted at a depth of two inches (5.08 cm). First rainfall (0.2"; 0.51 cm) occurred the day following treatment, the second rain (0.25"; […]) two days after treatment; cumulative rainfall 22 days after treatment was 1.8" (4.57 cm). Observations were made 6 weeks after treatment.

Barnyardgrass = assay: Field pre-emergence selectivity test; details: Echinochloa crus-galli, 1008 h, 6 weeks, read-out: Percent Inhibition; for inhibition at 560 g/ha: 0.56 Kg/Ha; for inhibition at 1120 g/ha: 1.12 Kg/Ha; for inhibition at 2240 g/ha: 2.24 Kg/Ha; for inhibition at 4480 g/ha: 4.48 Kg/Ha
Experimental: as §1

foxtail (spp) = assay: Field pre-emergence selectivity test; details: Setaria, 1008 h, 6 weeks, read-out: Percent Inhibition; for inhibition at 560 g/ha: 0.56 Kg/Ha; for inhibition at 1120 g/ha: 1.12 Kg/Ha; for inhibition at 2240 g/ha: 2.24 Kg/Ha; for inhibition at 4480 g/ha: 4.48 Kg/Ha
Experimental: as §1

rape = assay: Field pre-emergence selectivity test; details: 1008 h, 6 weeks, read-out: Percent Inhibition; for inhibition at 560 g/ha: 0.56 Kg/Ha; for inhibition at 1120 g/ha: 1.12 Kg/Ha; for inhibition at 2240 g/ha: 2.24 Kg/Ha; for inhibition at 4480 g/ha: 4.48 Kg/Ha
Experimental: as §1

Field Corn = assay: Field pre-emergence selectivity test; details: Zea mays, 1008 h, 6 weeks, read-out: Percent Inhibition; for inhibition at 560 g/ha: 0.56 Kg/Ha; for inhibition at 1120 g/ha: 1.12 Kg/Ha; for inhibition at 2240 g/ha: 2.24 Kg/Ha; for inhibition at 4480 g/ha: 4.48 Kg/Ha
Experimental: as §1

pigweed = assay: Field pre-emergence selectivity test; details: Amaranthus retroflexus, 1008 h, 6 weeks, read-out: Percent Inhibition; for inhibition at 560 g/ha: 0.56 Kg/Ha; for inhibition at 1120 g/ha: 1.12 Kg/Ha
Experimental: as §1

wild proso millet = assay: Field pre-emergence selectivity test; details: 1008 h, 6 weeks, read-out: Percent Inhibition; for inhibition at 560 g/ha: 0.56 Kg/Ha; for inhibition at 1120 g/ha: 1.12 Kg/Ha; for inhibition at 2240 g/ha: 2.24 Kg/Ha; for inhibition at 4480 g/ha: 4.48 Kg/Ha
Experimental: as §1

cotton = assay: Greenhouse pre-emergence GR15/GR85 selectivity test; details: Table XII
Text: (§2) A good grade of top soil is placed in aluminum pans and compacted to a depth of three-eighths to one-half inch from the top of the pan. On the top of the soil is placed a number of seeds or vegetative propagules of various plant species. The soil required to level fill the pans after seeding or adding vegetative propagules is weighed into a pan. The soil and a known amount of the active ingredient applied in a solvent or as a wettable powder suspension are thoroughly mixed, and used to cover the prepared pans. After treatment, the pans are given an initial overhead irrigation of eater, equivalent to one-fourth inch (0.64 cm) rainfall, then watered by subirrigation as need to give adequate moisture for germination and growth. As an alternative procedure, the overhead irrigation may be omitted. Observations are made about 2-3 weeks after seeding and treatment.
(§3) In the discussion and tables of data below, reference is made to herbicide application rates symbolized as "GR15 " and "GR85 "; these rates are given in kilograms per hectare (kg/ha) which are convertible into pounds per acre (lbs/A) by dividing the kg/ha rate by 1.12.
A further guide to the effectiveness of a chemical as a selective herbicide is the "selectivity factor" ("SF") for a herbicide in given crops and weeds. The selectivity factor is a measure of the relative degree of crop safety and weed injury and is expressed in terms of the GR15 /GR85 ratio, i.e., the GR15 rate for the crop divided by the GR85 rate for the weed, both rates in kg/ha (lb/A). In the tables below, selectivity factors are shown in parenthesis following the GR85 rate for each weed; the symbol "NS" indicates "non-selective". Marginal or undetermined selectivity is indicated by a dash (--).
Additionally, pre-emergence herbicidal data from other tests have established that compounds according to this invention also selectively suppress quackgrass, yellow nutsedge and/or other weeds in one or more of the crops cotton, peanuts, bush beans and/or rape. For example, in Table VI are presented data showing the herbicidal selectivity of the compounds of Examples 1 and 2 against quackgrass in rape and snap beans. Unless otherwise noted; greenhouse tests in Table VI and in other tables below involved herbicide treatments by soil incorporation and an initial overhead irrigation followed by subirrigation as described above.
In one multi-crop test in the greenhouse, the compounds of Examples 1, 9, and 10 were tested against yellow nutsedge in cotton, soybeans, corn and rice; each compound was non-selective with respect to yellow nutsedge in rice. However, markedly high selectivities for yellow nutsedge in cotton, soybeans and corn were shown for each of the compounds in the test; the respective GR15 and GR85 rates for these compounds are shown in Table XII selectivity factors are shown in parenthesis after each crop.

snap beans = assay: as above; details: Table VI
Text: as §2, §3
A further guide to the effectiveness of a chemical as a selective herbicide is the "selectivity factor" ("SF") for a herbicide in given crops and weeds. […]

CCOCN(C(=O)CCl)c1c(C)cccc1C(F)(F)F [Example 1, N-(ethoxymethyl)-2'-trifluoromethyl-6'-methyl-2-chloroacetanilide]
inhibition at 560 g/ha (Bush Bean; P.P.I.): 23%
inhibition at 1120 g/ha (Bush Bean; P.P.I.): 10%
inhibition at 2240 g/ha (Bush Bean; P.P.I.): 37%
inhibition at 4480 g/ha (Bush Bean; P.P.I.): 43%
inhibition at 560 g/ha (Bush Bean; S.A.): 0%
inhibition at 1120 g/ha (Bush Bean; S.A.): 8%
inhibition at 2240 g/ha (Bush Bean; S.A.): 20%
inhibition at 4480 g/ha (Bush Bean; S.A.): 32%
inhibition at 560 g/ha (Barnyardgrass; P.P.I.): 75%
inhibition at 1120 g/ha (Barnyardgrass; P.P.I.): 93%
inhibition at 2240 g/ha (Barnyardgrass; P.P.I.): 98%
inhibition at 4480 g/ha (Barnyardgrass; P.P.I.): 100%
inhibition at 560 g/ha (Barnyardgrass; S.A.): 63%
inhibition at 1120 g/ha (Barnyardgrass; S.A.): 93%
inhibition at 2240 g/ha (Barnyardgrass; S.A.): 93%
inhibition at 4480 g/ha (Barnyardgrass; S.A.): 98%
inhibition at 560 g/ha (foxtail (spp); P.P.I.): 75%
inhibition at 1120 g/ha (foxtail (spp); P.P.I.): 90%
inhibition at 2240 g/ha (foxtail (spp); P.P.I.): 98%
inhibition at 4480 g/ha (foxtail (spp); P.P.I.): 100%
inhibition at 560 g/ha (foxtail (spp); S.A.): 62%
inhibition at 1120 g/ha (foxtail (spp); S.A.): 92%
inhibition at 2240 g/ha (foxtail (spp); S.A.): 93%
inhibition at 4480 g/ha (foxtail (spp); S.A.): 98%
inhibition at 560 g/ha (rape; P.P.I.): 0%
inhibition at 1120 g/ha (rape; P.P.I.): 0%
inhibition at 2240 g/ha (rape; P.P.I.): 15%
inhibition at 4480 g/ha (rape; P.P.I.): 40%
inhibition at 560 g/ha (rape; S.A.): 0%
inhibition at 1120 g/ha (rape; S.A.): 0%
inhibition at 2240 g/ha (rape; S.A.): 5%
inhibition at 4480 g/ha (rape; S.A.): 33%
inhibition at 560 g/ha (Field Corn; P.P.I.): 0%
inhibition at 1120 g/ha (Field Corn; P.P.I.): 0%
inhibition at 2240 g/ha (Field Corn; P.P.I.): 5%
inhibition at 4480 g/ha (Field Corn; P.P.I.): 32%
inhibition at 560 g/ha (Field Corn; S.A.): 0%
inhibition at 1120 g/ha (Field Corn; S.A.): 0%
inhibition at 2240 g/ha (Field Corn; S.A.): 0%
inhibition at 4480 g/ha (Field Corn; S.A.): 15%
inhibition at 560 g/ha (pigweed; P.P.I.): 50%
inhibition at 1120 g/ha (pigweed; P.P.I.): 85%
inhibition at 2240 g/ha (pigweed; P.P.I., 2.24 Kg/Ha): 85%
inhibition at 4480 g/ha (pigweed; P.P.I., 4.48 Kg/Ha): 95%
inhibition at 560 g/ha (pigweed; S.A.): 0%
inhibition at 1120 g/ha (pigweed; S.A.): 0%
inhibition at 560 g/ha (wild proso millet; P.P.I.): 23%
inhibition at 1120 g/ha (wild proso millet; P.P.I.): 58%
inhibition at 2240 g/ha (wild proso millet; P.P.I.): 80%
inhibition at 4480 g/ha (wild proso millet; P.P.I.): 85%
inhibition at 560 g/ha (wild proso millet; S.A.): 63%
inhibition at 1120 g/ha (wild proso millet; S.A.): 83%
inhibition at 2240 g/ha (wild proso millet; S.A.): 95%
inhibition at 4480 g/ha (wild proso millet; S.A.): 97%
GR15 (cotton): 2.0 Kg/Ha
GR15 Rate (snap beans): 0.90 Kg/Ha
